In brackets after ≈: the same amount, converted by molar mass.
Experiments:
[1] = Oral absorption and blood content of Phthalazinol (first pass effect); type: in vivo
[2] = Water-solubility and wettability of Phthalazinol; type: physicochemical
[3] = tested on: alcohol dehydrogenase; assay: Metabolism of Phthalazinol with alcohol dehydrogenase in the living body; type: in vivo; conditions: before it arrives at the blood circulation system

absorption velocity ([1]; Phthalazinol subjected to the tests at present): low absorption velocity
Fa ([1]; in vivo, po, administered orally): ~100%
actual Phthalazinol content of the blood relative to the theoretical value ([1]; theoretical value assumes no metabolism and complete absorption): several tenths
wettability with water [2]: low wettability
solubility ([2]; water at 25° C.): ~200 µg/mL (≈ 724 µM)
metabolism (4-hydroxymethyl converted into inactive 4-carboxyl group) [3]: readily metabolized
Structure (SMILES): CCOC(=O)c1c(C)cc2c(CO)n[nH]c(=O)c2c1C [Phthalazinol, 6,8-Dimethyl-7-ethoxycarbonyl-4-hydroxymethyl-1-phthalazone]

Source: patent publication US4406879A, “Phthalazinol preparation” (Nippon Kayaku Kabushiki Kaisha, priority 1979, dated 1983)
